“Also recorded” adds a separate entry of the source.
Legend:
lysosomes of U2OS cells = experiment: Cell location by fluorescence (LysoTracker DND-22, GFP-Lamp1, DAPI) in U2OS cells; assay type: cell-based; conditions: U2OS cells treated 24 hours with 10 μM
Protocol: U2OS cells cultured to less than 40% confluence were treated for 24 hours with 10 μM of compound unless otherwise indicated. The marker LysoTracker® Blue DND-22 (L7525, Molecular Probes@) was added 30 minutes before fixing. GFP-Lamp1 was transiently transfected following the manufacturer's instructions. To summarise, […] of CellLight® Lysosomes-GFP BacMam 2.0 (C10596, Life Technologies) were mixed with […] of U2OS culture medium and added to each well of a 24-well plate. After overnight incubation (16 hours), the cells were washed and treated with Marmycin A as indicated in Example 9. For analysis by immunofluorescence, the cells were fixed 12 minutes in 2% formaldehyde/PBS, permeabilised 10 min with 0.1% Triton X/PBS and […] for 1 h with 5% BSA, 0.2% Tween-20/PBS (blocking buffer). Cover glasses were incubated with anti-LAMP1, p62, antibodies, diluted to 1/100 in the blocking buffer overnight at 4° C. The cells were then washed 3 times with 0.2% Tween-20/PBS, and incubated as described above with anti-mouse Alexa 488-conjugated secondary antibody (A11029, Invitrogen) diluted to 1/500 in blocking buffer. The cover glasses were washed as described above and mounted with VectaShield® mounting medium for analysis by fluorescence with or without DAPI (Vector Laboratories Ltd). The images were obtained with a Leica microscope […] and analysed with ImageJ software. […]

[1] = system: MDA-MB-231 cells (human breast cancer cells); experiment: Cell viability assay (CellTiter-Blue) on MDA-MB-231 cells; assay type: cell-based
Protocol: MDA-MB-231 cells (human breast cancer cells) purchased from ATCC were held in McCoy's 5A medium, supplemented with 10% foetal bovine serum (FBS)) and 1× Antibiotic-Antimycotic (all from Gibco®) at 37° C. with 5% CO2.
Cell viability was measured by seeding 2000 cells per well in a 96-well plate. N-Acetyl Cystein (NAC, A9165 Sigma) or Pan-caspase zVAD-FMK inhibitor (550377 from BD pharmingen) were pre-treated for 1 hour or 30 minutes respectively before treatment with the assayed compounds. The reagent <<CellTiter-Blue® Reagent>> (20 μl/well) was added after a treatment time of 24, 48 or 72 hours, and the cells were incubated for one hour before fluorescence detection (560(20)Ex/590(10)Em) on a Perkin Elmer Wallac 1420 Victor2 Microplate Reader.
The assayed compounds were doxorubicin, marmycin A, artesunate, artesumycin and a combination of marmycin A and artesunate (cf. FIG. 9).

[2] = system: HMLER ID2 cancerous cell line; experiment: Cell viability assay on HMLER ID2 cancerous cell line; assay type: cell-based, human; conditions: HMLER ID2 cells
Protocol: (§1) Cell viability: cell viability was assessed using the following protocol:
(§2) Seeding 1000 cells/well in a 96-well plate. The cells were treated for 72 hours. After a treatment time of 72 hours the reagent CellTiter-Blue® Reagent (G8081, Promega) was added and the cells incubated for one hour before recording fluorescence intensities (Excitation, 560/20 nm; Emission, 590/10 nm) using a Perkin Elmer Wallac 1420 Victor2 Microplate Reader.
(§3) Cell culture: the following material was used: saline buffer <<Dulbecco's Phosphate-Buffered Saline>> (14190-094, 500 mL, Gibco), DMEM/F12 (31331-028, 500 mL, Gibco), DMEM high-glucose with UltraGlutamine (BE12-604F/U1, BioWhittaker, Lonza), McCoy's 5A medium (Modified) (26600-023, Gibco), RPMI 1640 with L-glutamine (BE12-702F/U1, BioWhittaker, Lonza), Foetal Bovine Serum—FBS, 10270-106, Gibco), Hydrocortisone (H0888, Sigma), Insulin (10516, Sigma or 19278, Sigma), BD Epidermal growth factor human recombinant (hEGF, 354052, BD Biosciences), PEN-STREP (DE17-602E, BioWhittaker, Lonza), puromycin dihydrochloride (A11138-02, 460 Life Technologies).
The line referenced HMLER ID2 is a hTert, SV40, HRasV12 transformed line, isogenic but non-stem.
(§4) The HMLER CD44^high/CD24^low cells (Cancer stem cells—CSCs), HMLER CD44^high/CD24^high (non-CSCs) were cultured in DMEM/F12 supplemented with 10% FBS, 10 μg/mL insulin, 0.5 μg/mL hydrocortisone, 10 ng/mL hEGF and 0.5 μg/mL of puromycin.

[3] = system: HMLER CD24- cancerous stem cell line (HMLER CD44high/CD24low); experiment: Cell viability assay on HMLER CD24- cancerous stem cell line; assay type: cell-based, human
Protocol: as §1, §2, §3
The human mammary epithelial cell line was infected with a retrovirus carrying hTERT, SV40 and the oncogenic allele HrasV12, called HMLER CD44high/CD24 low cells, not expressing E-cadherin and Vimentin (reference HMLER CD24low or HMLER CD44+/CD24−), courteously offered by A. Puisieux (INSERM).
as §4

[4] = system: A2780 cells (ovarian cancer line); experiment: Cell proliferation/viability assay (CellTiter-Blue) on A2780 cells; assay type: cell-based; conditions: Homo sapiens, at 72 hours
Protocol: (§5) U2OS and A2780 cells purchased from ATCC were held in McCoy's 5A or RPMI 1640 medium respectively, supplemented with 10% foetal bovine serum (FBS)) and 1× Antibiotic-Antimycotic (all from Gibco®) at 37° C. with 5% CO2. Measurement of cell viability was carried out by seeding 2000 cells per well in a 96-well plate. N-Acetyl Cystein (NAC, A9165 Sigma) or Pan-caspase zVAD-FMK inhibitor (550377 by BD pharmingen) were pre-treated for 1 hour or 30 minutes respectively before treatment with Marmycin A. The reagent <<CellTiter-Blue®>> Reagent) (20 μl/well) was added after 24, 48, or 72 treatment hours, and the cells were incubated for one hour before fluorescence detection (560(20)Ex/590(10)Em) on a Perkin Elmer Wallac 1420 Victor2 Microplate Reader.

[5] = system: HT1080 cells (fibrosarcoma line); experiment: Cell viability assay (CellTiter-Blue) on HT1080 cells; assay type: cell-based
Protocol: as §5
The same protocol was followed to evaluate cell viability of HT1080 cells in the presence of compound 33 of Example 6 (called Oxamethoxymarmycin), doxorubicin or etoposide.

[6] = system: U2OS cells (osteosarcoma cancer line); experiment: Cell proliferation/viability assay (CellTiter-Blue) on U2OS cells; assay type: cell-based; conditions: Homo sapiens, at 72 hours
Protocol: as §5

[7] = system: DNA-damage response (phosphorylation of H2AX on ser139, phosphorylation of P53, induction of P21); experiment: Western Blot analysis of DNA-damage response; assay type: cell-based; conditions: cells treated as in Example 10
Protocol: The cells treated as indicated in Example 10 were washed twice in PBS and lysed with Laemmli buffer 2×. The cell extracts were brought to the boil for five minutes at 100° C. and quantified with a Nanodrop 2000 device (Thermal Scientific). 100 μg of protein lysate were separated with 4-20% Mini-PROTEAN® TGX Stain-Free™ gel (BioRad) and transferred onto a nitrocellulose membrane (Amersham). Stains were detected with different antibodies such as anti-β-actin (ab8226, Abcam), anti-p62 (610833, BD Transduction Laboratories™), anti-H2AX (PA1-14198, Thermal Scientific), anti-gH2AX (Ser139) (#2577, Cell Signaling), anti-p21, anti-p53 (1C12) (#2524, Cell Signaling), anti-p-p53, anti-LC3B (#2775, Cell Signaling), anti-BID, diluted to 1/1000 in 5% BSA, 0.1% Tween-20/TBS.

[8] = system: human breast, prostate, lung, colon, ovarian cancer lines and leukaemia; conditions: cited from earlier work
[9] = Homo sapiens, HT-1080, at 72 hours

With `Cc1ccc2c3c(ccc2c1)C(=O)c1c(ccc2c1NC1(C)CC2O[C@@H](C)[C@@H]1OC(=O)CCC(=O)OC1O[C@@H]2O[C@@]4(C)CC[C@H]5[C@H](C)CC[C@@H]([C@H]1C)[C@@]25OO4)C3=O` (stereo partly drawn) [artesumycin] as the molecule, how does the cell location (lysosomes of U2OS cells) read?
Its cell location is “accumulates in the lysosomes”.

And the “cytotoxic activity compared with other treatments” value [1]?
Its value is “higher than that of marmycin A and also higher than that of marmycin A combined with artesunate; also recorded: synergic effect”.

What about the IC50 ([1]; Homo sapiens, 72 h treatment) of the same molecule?
The IC50 was 900 nM.

What about the cell viability ([1]; concentration of 0.9 μm) of the same molecule?
Its cell viability is “less than 50%”.

What about the “cytotoxic activity compared with artesunate” value [2] of the same molecule?
Its value is “higher than that of artesunate”.

And the cell viability ([2]; concentration of 0.1 μm, 72 hours)?
The cell viability was “about 44%”.

And the IC50 ([2]; Homo sapiens, 72 hours)?
Its IC50 is 98 nM.

What about the “cytotoxic activity compared with artesunate” value ([3]; HMLER CD24- cells) of the same molecule?
The value was “higher than that of artesunate”.

And the cell viability ([3]; HMLER CD24- cells, concentration of 1 μm, 72 hours)?
Its cell viability is “about 18%”.

And the IC50 ([3]; Homo sapiens, HMLER CD24- cancerous stem cells, 72 hours)?
The IC50 was 100 nM.

Which results are given for `COc1cccc2c1C(=O)c1c(O)c3c(c(O)c1C2=O)C[C@@](O)(C(=O)CO)C[C@@H]3O[C@H]1C[C@H](N)[C@H](O)[C@H](C)O1` [doxorubicin, reference compound]?
IC50 [4]: 60 nM; IC50 [5, 9]: 35 nM; IC50 [6]: 100 nM; DNA-damage response (Western Blot) [7]: generates a DNA-damage response

For `COc1cc([C@@H]2c3cc4c(cc3[C@@H](O[C@@H]3O[C@@H]5CO[C@@H](C)O[C@H]5[C@H](O)[C@H]3O)[C@H]3COC(=O)[C@H]23)OCO4)cc(OC)c1O` [etoposide], which IC50 [5, 9] is on record?
Its IC50 is 500 nM.

With `Cc1ccc2c3c(ccc2c1)C(=O)c1c(ccc2c1NC1(C)CC2O[C@@H](C)[C@@H]1O)C3=O` (stereo partly drawn) [marmycin A] as the molecule, how does the cytotoxic properties [8] read?
The cytotoxic properties was “cytotoxic properties”.

What about the IC50 [4] of the same molecule?
The IC50 was 9800 nM.

And the cell location (lysosomes of U2OS cells)?
Its cell location is “not located at the cell nucleus but at the site of the lysosomes; also recorded: accumulates in the lysosomes”.

What about the IC50 [6] of the same molecule?
Its IC50 is 10300 nM.

What about the “DNA-damage response (Western Blot)” value [7] of the same molecule?
The value was “only scarcely damages caspase-dependent DNA”.

For Oxamethoxymarmycin, which IC50 ([5]; at 72 hours) is on record?
The IC50 was 75000 nM.

Reference: patent publication US20170260210A1, “METHOD FOR PREPARING MARMYCIN A AND ANALOGUES THEREOF, AND ALSO USES THEREOF” (Centre national de la recherche scientifique, priority 2014, published 2017)
